# Reference: patent publication US9784746B2, “Method for studying transport of an agent across a bilayer membrane in bioanalytical sensor applications” (Bio-Rad Laboratories, Inc., priority 2008, dated 2017)
# What was measured:
# [1] = Membrane transport of ions across gramicidin-containing liposomes (SPR); type: physicochemical; conditions: gramicidin incorporated for K+ co-transport; FIG. 7
# Description: Information of this type is of high relevance in studies on how, for example, drugs influence the permeability of cell-membranes. Both passive and membrane-protein mediated transfer of uncharged solutes is of high biological and pharmaceutical relevance. However, for a method like this to be generically applicable for any type of membrane transport reaction, also ion translocation should be possible to measure, which is today typically measured using patch-clamp based assays. FIG. 7 illustrates membrane transport of iodide (˜10 s) and chloride (˜200 s) ions, in excellent agreement with literature data. Note that gramicidin was incorporated into the liposomes in order to ensure co-transport of counter ions (K+), thus prohibiting the establishment of an electrostatic transmembrane potential that would otherwise restrict the unhindered transport of anions.
# [2] = Glycerol transport across liposome membrane versus cholesterol content (SPR); type: physicochemical
# Description: At first 70 nm liposomes were provided in accordance with Example 1. […] Also shown in FIG. 4b (dashed curve) is an identical rinsing step without immobilized liposomes, illustrating that the time constant of the fluidic exchange is faster than 100 ms, which is sufficient to temporally resolve these transport measurements. The rate of glycerol release was examined in a temperature interval from 8 to 22° C. […] In agreement with expectations, the rate of transport across the lipid membrane increases with increasing temperature, and Arrhenius plots display a linear dependence between ln(1/) and 1/T, yielding activation energies in excellent agreement with literature data for the three solutes (glycerol, urea and hydroxyurea) investigated, see FIG. 5b.
# 70 nm liposomes containing 40% cholesterol were provided in accordance with Example 1. Binding of the liposomes followed by repeated injection cyclodextrin, which removes cholesterol from the lipid bilyaer of the liposomes is shown in FIG. 6a. The SPR response is proportional to the interfacial refractive index, which makes it possible to quantify the removal of cholesterol. […]
# Each injection of cyclodextrin (FIG. 6a) was followed by an injection pulse of glycerol, which enabled the time constant of glycerol transport versus cholesterol content to be quantified, ranging from around 7 s at 40% cholesterol to 1 s at 14% cholesterol, see FIG. 6b. […]
# [3] = Melittin binding to tethered POPC liposomes (Biacore SPR)
# Description: Liposomes were made by first evaporating the solvent, chloroform, from the POPC lipids using a flow of nitrogen gas. The dried lipids were then kept under the flow of nitrogen gas for at least one hour after which HEPES-2 was added to yield a 4 mg/ml concentration of POPC. The dissolved POPC lipids were vortexed for at least 30 min to yield multi-laminar liposomes. Uni-laminar liposomes were produced using a mini extruder and polycarbonate membranes with pore size of 50 nm from Avanti Polar Lipids® with a 50 nm pore size. […] The liposomes were stored under nitrogen gas at 4° C. until use (within 2 days).
# A mixture (300 μl) of HS-PEG (200 μg/ml) and HS-PEG-Biotin (20 μg/ml), dissolved in HEPES-2, were injected over the Biacore® Au sensor chip at a flow rate of 5 μl/min. Then a mixture (150 μl) of NeutrAvidin (40 μg/ml) and Biotin-DNA (0.7 μM) was injected and bound to HS-PEG-Biotin at the surface.
# POPC liposomes (2 mg/ml, in HEPES-2) containing cholesterol-DNA tags (3 DNA tags per liposome) were injected at a flow rate of 5 μl/min. The end of the DNA-part of the cholesterol-DNA tag is single-stranded and complementary in sequence to the Biotin-DNA at the surface enabling tethering of the liposomes to the sensor surface.
# The reversible binding of melittin was measured in the Biacore® instrument directly after the tethering of POPC liposomes was finished. Melittin solutions at a concentration of 0.5-40 μM in HEPES-2 were injected in sequence. During injection the melittin molecules bind to the liposomes and after the injection is terminated, running buffer (HEPES-2) flows over the surface and melittin dissociates. After the dissociation was complete a new melittin solution of different concentration was injected.
# Melittin solutions of various concentrations (0.5-40 μM) were injected over the bound liposomes in the Biacore® instrument at 5 μl/min. The change in response (RU) as a function of time (t) was fitted to RU=RU0+RU1*(1−exp(−t/τ1))+RU2*(1−exp(−t/τ2)). However, the change in RU during the injection of 0.5 μM melittin could be described using only one exponential (i.e. RU2=0). It is known that high concentrations of melittin can rupture cells and liposomes. Unspecific binding (i.e. binding to the biosensor surface without liposomes) of melittin was small, less than 5% of the binding of melittin to the liposome membrane surface (data not shown).
# [4] = Melittin pore mediated sucrose uptake into tethered liposomes (SPR refractive index); type: physicochemical
# Description: After tethering of NeutrAvidin/Biotin-DNA the following injections were made in sequential order; 0.1 M sucrose, 2 mg/ml cholesterol-DNA tagged POPC-liposomes, 0.1 M sucrose, 40 μM melittin, 0.1 M sucrose, 0.1 M sucrose, 0.1 M sucrose. All samples were dissolved in HEPES-2.
# A simple method for real-time and label-free uptake measurements of analytes across membranes at a biosensor surface would be of great value when investigating for example membrane transporters. Here we wanted to test if it was possible to measure the uptake of an analyte, sucrose, through the melittin pore by simply detecting the change in refractive index of the solution inside the liposome caused by the analyte as it is taken up.
# Adding sucrose changes the refractive index of the solution in the detection volume, i.e. the volume corresponding to the evanescent field above the sensor surface, which is manifested as a shift in RU. […]
# The amplitude of the uptake decrease from S3 to S5, which is explained by a decreasing number of liposomes having pores. […] The expected RU of the 7400 sucrose molecules (0.1 M) inside the liposome can be calculated from the obtained response of immobilizing the liposome itself (RU=6790). […] Since only ˜85% of the liposomes have pores the expected value is 480/0.85≈560 RU, which is in good agreement with the measured response of 530 RU from the S3 injection.
# [5] = Cyclodextrin removal of cholesterol from liposome bilayer (SPR); conditions: after seven injections; start 40% cholesterol
# Description: 70 nm liposomes containing 40% cholesterol were provided in accordance with Example 1. Binding of the liposomes followed by repeated injection cyclodextrin, which removes cholesterol from the lipid bilyaer of the liposomes is shown in FIG. 6a. The SPR response is proportional to the interfacial refractive index, which makes it possible to quantify the removal of cholesterol. After seven injections of cyclodextrin, the cholesterol content was reduced to 14%.
# [6] = outer membrane, fast phase, fit of k1 vs [Mel]B, 0.5-40 μM, HEPES-2
compound,measurement,setting,value
Cl [chloride],membrane transport time,[1],~200 s
OCC(O)CO [glycerol],time constant of glycerol transport,[2]; 14% cholesterol,~1 s
same,time constant of glycerol transport,[2]; 40% cholesterol,around 7 s
I [iodide],membrane transport time,[1],~10 s
CC[C@H](C)[C@H](NC(=O)CN)C(=O)NCC(=O)N[C@@H](C)C(=O)N[C@H](C(=O)N[C@@H](CC(C)C)C(=O)N[C@@H](CCCCN)C(=O)N[C@H](C(=O)N[C@@H](CC(C)C)C(=O)N[C@H](C(=O)N[C@H](C(=O)NCC(=O)N[C@@H](CC(C)C)C(=O)N1CCC[C@H]1C(=O)N[C@@H](C)C(=O)N[C@@H](CC(C)C)C(=O)N[C@H](C(=O)N[C@@H](CO)C(=O)N[C@@H](Cc1c[nH]c2ccccc12)C(=O)N[C@H](C(=O)N[C@@H](CCCCN)C(=O)N[C@@H](CCCNC(=N)N)C(=O)N[C@@H](CCCCN)C(=O)N[C@@H](CCCNC(=N)N)C(=O)N[C@@H](CCC(N)=O)C(=O)N[C@@H](CCC(N)=O)C(N)=O)[C@@H](C)CC)[C@@H](C)CC)[C@@H](C)O)[C@@H](C)O)C(C)C)C(C)C [melittin],"k+2 (apparent, slower kinetic phase, binding to inner membrane)",[3]; linear fit of k2 vs [Mel]B,56 M⁻¹ s⁻¹
same,"k−2 (slower kinetic phase, binding to inner membrane)",[3]; linear fit of k2 vs [Mel]B,0.0046 s⁻¹
same,microscopic off-rate k−1 of melittin with the liposome membrane surface,[3]; [6],0.032 s⁻¹
same,microscopic on-rate k+1 of melittin with the liposome membrane surface,[3]; [6],3684 M⁻¹ s⁻¹
OC[C@H]1O[C@@](CO)(O[C@H]2O[C@H](CO)[C@@H](O)[C@H](O)[C@H]2O)[C@@H](O)[C@@H]1O [sucrose],decay time for uptake of sucrose τ3,"[4]; 0.1 M sucrose after 40 μM melittin (S3), estimated from FIG. 3",≈ 20 sec
same,number of sucrose molecules that cross the membrane per liposome,"[4]; in ˜20 sec, inside concentration 0.1 M",~7400
cyclodextrin,cholesterol content of liposomes after cyclodextrin,[5],14%
